In paper PMC9428674 (RSC Chemical Biology, 2022):

Assays:
[1] = cited from earlier work
[2] = tested on: NTAQ1; test: Western blot verification of NTAQ1 degradation; conditions: 100 nM MLN4924 pre-treatment for 2 hours

| Compound | human plasma half-life [1] | effect of pre-treatment on NTAQ1 downregulation by EM12-FS [2] |
| --- | --- | --- |
| Nc1cccc2c1CN(C1CCC(=O)NC1=O)C2=O (stereo not shown) [lenalidomide] | 4.73 h | – |
| Nc1cccc2c1C(=O)N(C1CCC(=O)NC1=O)C2=O (stereo not shown) [pomalidomide] | 2.65 h | – |
| O=C1CCC(N2C(=O)c3ccccc3C2=O)C(=O)N1 (stereo not shown) [thalidomide] | 0.367 h | – |
| NS(=O)(=O)OC[C@@H]1C[C@@H](n2ccc3c(N[C@H]4CCc5ccccc54)ncnc32)C[C@@H]1O [MLN4924] | – | rescued downregulation of NTAQ1 by EM12-FS |
